Measurements published in publication PMC11484510, “Antibacterial activity of structurally diverse natural prenylated isobavachalcone derivatives” (RSC Advances, 2024).
In brackets after ≈: the same amount, converted by molar mass. Where two headings read alike, the source gives them in different places.

Tests used:
MRSA ATCC 15187 [1] = assay: MIC, broth microdilution (CLSI), Alamar blue; format: cell-based, Methicillin-resistant S. aureus; settings: MRSA ATCC 15187, 24 hours at 37 °C, read-out: Minimum inhibitory concentration (MIC) MRSA
Excerpt: (§1) The bacterial strains S. aureus ATCC 29213, MRSA ATCC 15187, E. coli ATCC 25922, and P. aeruginosa ATCC 27853 were obtained from ATCC (American Type Culture Collection). Cation-adjusted Mueller–Hinton broth (MHB; Becton–Dickinson, Cockeysville, MD) was used to determine the minimum inhibitory concentration (MIC). Mueller–Hinton agar (MHA; Becton–Dickinson) was used for minimum bactericidal concentration (MBC) studies. Alamar blue (Himedia) was used to detect the MIC value.
(§2) The antibacterial activity of the compounds against S. aureus ATCC 29213, MRSA ATCC 15187, E. coli ATCC 25922, and P. aeruginosa ATCC 27853 was determined through a broth microdilution method according to the guidelines of the Clinical and Laboratory Standards Institute (CLSI).[50] […] Growth control and media control were employed along with 2% DMSO as vehicle control.
(§3) In a 96-well flat bottom plate, the test compounds were two-fold serially diluted in Mueller Hinton Broth (MHB). The final concentrations of the compounds ranged from 100 to 0.08 μM. 100 μL of standardized bacterial inoculum with turbidity equivalent to 0.5 McFarland standard (1.5 × 10^8 CFU mL^−1) was diluted 1 : 100 (1.5 × 10^6 CFU mL^−1) in Mueller Hinton Broth and inoculated in the plates.[51] The plates were incubated for 24 hours at 37 °C. After incubation, 10 μL of freshly prepared Alamar blue (Himedia) was added to each well of the plate, and plates were further incubated at 37 °C for 30 minutes. After incubation, the fluorescence was measured at excitation/emission of 540–570/580–610 nm. The percentage inhibition and viability were calculated for the controls, and the Gompertz curve was utilized to estimate the minimum inhibitory concentration.

E. coli ATCC 25922 [2] = assay: MIC, broth microdilution (CLSI), Alamar blue; format: cell-based; settings: E. coli ATCC 25922, 24 hours at 37 °C, read-out: Minimum inhibitory concentration (MIC) E. coli
Excerpt: as §1, §2, §3

P. aeruginosa ATCC 27853 [3] = assay: MIC, broth microdilution (CLSI), Alamar blue; format: cell-based; settings: P. aeruginosa ATCC 27853, 24 hours at 37 °C, read-out: Minimum inhibitory concentration (MIC) P. aeruginosa
Excerpt: as §1, §2, §3

S. aureus ATCC 29213 [4] = assay: MIC, broth microdilution (CLSI), Alamar blue; format: cell-based; settings: S. aureus ATCC 29213, 24 hours at 37 °C, read-out: Minimum inhibitory concentration (MIC) S. aureus
Excerpt: as §1, §2, §3

E. coli ATCC 25922 [5] = assay: MBC, plating on MHA; format: cell-based; settings: Escherichia coli, ATCC25922; more than 99.9% of the cells killed; read-out: Minimum bactericidal concentration (MBC) E. coli
Excerpt: as §1
(§4) MBC is defined as the lowest concentration of the compound at which more than 99.9% of the cells were killed compared with the growth control. The minimum compound concentration at which no visible bacterial growth was observed was taken as the Minimum Bactericidal Concentration (MBC).[50]

P. aeruginosa ATCC 27853 [6] = assay: MBC, plating on MHA; format: cell-based; settings: Pseudomonas aeruginosa, ATCC27853; more than 99.9% of the cells killed; read-out: Minimum bactericidal concentration (MBC) P. aeruginosa
Excerpt: as §1, §4

S. aureus ATCC 29213 [7] = assay: MBC, plating on MHA; format: cell-based; settings: Staphylococcus aureus, ATCC29213; more than 99.9% of the cells killed; read-out: Minimum bactericidal concentration (MBC) S. aureus
Excerpt: as §1, §4

MRSA ATCC 15187 [8] = assay: MBC, plating on MHA; format: cell-based, Methicillin-resistant S. aureus; settings: Staphylococcus aureus; more than 99.9% of the cells killed; read-out: Minimum bactericidal concentration (MBC) MRSA
Excerpt: as §1, §4

S. aureus [9] = assay: Combinational study (checkerboard microdilution) with standard drugs; format: cell-based; settings: S. aureus
Protocol: The Fractional Inhibitory Concentration Index (FICI) was calculated for each test compound and reference drug to find the combinational effect.
In a 96-well flat bottom plate, the reference drug with 4× MIC was serially diluted horizontally. The test compounds with 4× MIC were serially diluted two-fold outside the plate in 1.5 mL Eppendorf's using Mueller Hinton Broth (MHB). These two serially diluted compounds were combined to create drug-compound combinations in the plate. The reference drug (horizontally) and tested compounds (vertically) alone were serially diluted for MIC determination. 100 μL of the standardized bacterial inoculum with a turbidity equivalent to a 0.5 McFarland standard were diluted 1 : 100 in Mueller Hinton Broth and inoculated in the plates. The plates were incubated for 24 hours at 37 °C. After incubation, 10 μL of freshly prepared Alamar blue (Himedia) was added to each well of the plate, and the plates were further incubated at 37 °C for 30 minutes. After incubation, the plates were visually observed. […] The FICI was calculated using the formula FICI = FIC of compound + FIC of drug. The calculation followed is FICI (CA/(MICA)) + (CB/(MICB)), where CA is the MIC of the compound in combination, CB is the MIC of the drug in combination, and MICA and MICB are the MIC values of individual compounds and drugs, respectively. The range selection followed the interpretation criteria. The FICI range of 0.5 to 4 indicates indifference, ≤ or =0.5 indicates synergy and >4 indicates antagonism.[57]

S. aureus [10] = assay: Cell integrity analysis by PI staining; format: cell-based; settings: 1× MIC and 2× MIC, 30 minutes, compared to the untreated cells
Protocol: Propidium iodide (PI) indicates cell integrity, emitting a red fluorescence signal. PI's polar and hydrophilic nature impedes its entrance within active bacterial cells, but within perforated dead cells, it can easily bind to nucleic acid (DNA/RNA).[32,60]S. aureus bacterial cells were incubated overnight at 37 °C and diluted further 1 : 100 in Mueller Hinton Broth (MHB). The diluted culture was grown until its OD600 reached 0.5. […] Vancomycin was used as a drug control at 1× MIC, while untreated bacterial cells were used as growth control. The samples were centrifuged at 5000 rpm speed at 4 °C temperature for 10 minutes, and the pellet was washed two times using phosphate-buffered saline pH-7.4 (PBS). To stain the sample (dead cells), 3 μL PI of 20.0 mM concentration was added to the 1 mL solution (pellet resuspended in PBS) and incubated for 15 minutes. To remove the dye, the samples were centrifuged again and washed with PBS once. The final pellet was resuspended in 1 mL of PBS, and 30 μL of each undiluted sample was used to obtain fluorescence imaging. The cells were observed under fluorescence microscopy.[61]

CC(C)=CCc1c(O)ccc2c1O/C(=C\c1ccc(O)cc1)C2=O [IBC-3, (Z)-6-hydroxy-2-(4-hydroxybenzylidene)-7-(3-methylbut-2-en-1-yl)benzofuran-3(2H)-one]
MIC (MRSA ATCC 15187 [1]): 6 µM (≈ 1.93 µg/mL)
MIC (MRSA ATCC 15187 [1]; Staphylococcus aureus): 6 µM (≈ 1.93 µg/mL)
MIC (E. coli ATCC 25922 [2]): 23 µM (≈ 7.41 µg/mL)
MIC (E. coli ATCC 25922 [2]; Escherichia coli, ATCC25922): 23 µM (≈ 7.41 µg/mL)
MIC (P. aeruginosa ATCC 27853 [3]): 24 µM (≈ 7.74 µg/mL)
MIC (P. aeruginosa ATCC 27853 [3]; Pseudomonas aeruginosa, ATCC27853, 24 h): 24 µM (≈ 7.74 µg/mL)
MIC (S. aureus ATCC 29213 [4]): 10 µM (≈ 3.22 µg/mL)
MIC (S. aureus ATCC 29213 [4]; Staphylococcus aureus, ATCC29213): 10 µM (≈ 3.22 µg/mL)
MBC (E. coli ATCC 25922 [5]): 25 µM (≈ 8.06 µg/mL)
MBC (P. aeruginosa ATCC 27853 [6]): 100 µM (≈ 32.2 µg/mL)
MBC (S. aureus ATCC 29213 [7]): 25 µM (≈ 8.06 µg/mL)
MBC (MRSA ATCC 15187 [8]): 25 µM (≈ 8.06 µg/mL)
MIC combination (compound) (S. aureus [9]; MIC of the compound in combination with ciprofloxacin): 5 µM
MIC combination (compound) (S. aureus [9]; MIC of the compound in combination with vancomycin): 5 µM
MIC (S. aureus [9]; Staphylococcus aureus, checkerboard, substance alone, read-out: MIC alone): 10 µM
Outcome of combination (S. aureus [9]; compound with ciprofloxacin): Indifference (The FICI range of 0.5 to 4 indicates indifference)
∑ FICI (S. aureus [9]; compound with ciprofloxacin): 1
∑ FICI (S. aureus [9]; compound with vancomycin): 0.5
PI red fluorescence (cell integrity) (S. aureus [10]): notably increased intensity of red fluorescence
